Target: T1, 1-deoxy-D-xylulose 5-phosphate synthase (DXPS) (Escherichia coli, UniProt P77488)
T1 sequence (P77488 2-620): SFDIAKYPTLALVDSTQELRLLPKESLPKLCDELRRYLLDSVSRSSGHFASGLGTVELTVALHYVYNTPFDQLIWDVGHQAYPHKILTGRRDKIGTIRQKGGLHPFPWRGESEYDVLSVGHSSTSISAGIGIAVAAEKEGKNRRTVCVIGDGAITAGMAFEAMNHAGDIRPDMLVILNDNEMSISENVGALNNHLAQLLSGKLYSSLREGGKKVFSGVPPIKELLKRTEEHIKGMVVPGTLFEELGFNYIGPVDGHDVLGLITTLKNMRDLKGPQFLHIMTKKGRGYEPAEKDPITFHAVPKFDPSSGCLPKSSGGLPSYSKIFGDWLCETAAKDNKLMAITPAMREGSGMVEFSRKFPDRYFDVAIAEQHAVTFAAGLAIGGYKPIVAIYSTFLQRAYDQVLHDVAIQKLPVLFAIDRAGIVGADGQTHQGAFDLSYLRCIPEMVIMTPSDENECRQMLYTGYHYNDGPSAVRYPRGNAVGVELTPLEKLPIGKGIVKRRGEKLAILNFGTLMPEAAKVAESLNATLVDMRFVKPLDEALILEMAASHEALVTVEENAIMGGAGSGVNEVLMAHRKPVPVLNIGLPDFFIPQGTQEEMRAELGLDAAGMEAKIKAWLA
Assay: CD titration of the ThDP-bound pre-decarboxylation intermediate, anaerobic
Format: binding

CCC(=O)C(=O)O [compound 2, ketobutyrate]
Kd: 16 ± 9 µM

— PMC8015787 (Biochemistry, 2021)
